The assay concerns lung cancer cell line NCI-H82. As to the kind of experiment: Cell proliferation assay, NCI-H82 (CELL-TITER GLO). As to conditions: Homo sapiens, NCI-H82, 72 h, NCI-H82 cells, 72 h incubation, cell viability by CELL-TITER GLO, top concentration 1 μM; read-out: EC50, Inhibition of NCl-H82 Cell Proliferation. Format: cell-based. The method in brief:
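NCI-H82 cells, 1,000 per well in RPMI1640, were treated after overnight plating with a 3-fold dilution series from 1 μM. Viability read by CellTiter-Glo luminescence after 72 h. EC50 derived from the curves.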

The text below walks through data of patent publication US20240101546A1, “HETEROARYL-ACETYLENES, PHARMACEUTICAL COMPOSITIONS THEREOF, AND THEIR THERAPEUTIC APPLICATIONS” (Eubulus Biotherapeutics Inc., priority 2020, published 2024).

Some results are limits rather than exact numbers.

Consider `C#Cc1nc(NC(=O)N[C@@H](COC(=O)C(C)(C)C)c2ccc(-c3cccc4ncsc34)cc2)cs1` [Compound A202, (R)-2-(4-(Benzo[d]thiazol-7-yl)phenyl)-2-(3-(2-ethynylthiazol-4-yl)ureido)ethyl pivalate], for which the EC50 is no more than 0.2 µM.
`C#Cc1nc(NC(=O)N[C@H](c2ccc(-c3cccc4ncsc34)cc2)C(C)(C)O)cs1` [Compound A203, (R)-1-(1-(4-(Benzo[d]thiazol-7-yl)phenyl)-2-hydroxy-2-methylpropyl)-3-(2-ethynylthiazol-4-yl)urea]: the EC50 was no more than 0.2 µM.
With `C#Cc1nc(NC(=O)N[C@H](c2ccc(-c3cccc4ncsc34)cc2)C(C)O)cs1` (stereo partly drawn) [Compound A204, 1-((1R)-1-(4-(Benzo[d]thiazol-7-yl)phenyl)-2-hydroxypropyl)-3-(2-ethynyl-thiazol-4-yl)urea] the figure was no more than 0.2 µM; with `C#Cc1nc(NC(=O)N(CCC#N)Cc2ccc(-c3cccc4ncsc34)cc2)cs1` [Compound A205, 1-(4-(Benzo[d]thiazol-7-yl)benzyl)-1-(2-cyanoethyl)-3-(2-ethynylthiazol-4-yl)urea], no more than 0.2 µM; with `C#Cc1nc(NC(=O)N(CCO)Cc2ccc(-c3cccc4ncsc34)cc2)cs1` [Compound A206, 1-(4-(Benzo[d]thiazol-7-yl)benzyl)-3-(2-ethynylthiazol-4-yl)-1-(2-hydroxyethyl)-urea], no more than 0.2 µM.
Then `C#Cc1nc(NC(=O)N(CCS(C)(=O)=O)Cc2ccc(-c3cccc4ncsc34)cc2)cs1` [Compound A207, 1-(4-(Benzo[d]thiazol-7-yl)benzyl)-3-(2-ethynylthiazol-4-yl)-1-(2-(methyl-sulfonyl)ethyl)urea], with no more than 0.2 µM; and `C#Cc1nc(NC(=O)N(CC#N)Cc2ccc(-c3cccc4ncsc34)cc2)cs1` [Compound A208, 1-(4-(Benzo[d]thiazol-7-yl)benzyl)-1-(cyanomethyl)-3-(2-ethynylthiazol-4-yl)urea], with no more than 0.2 µM.
With `C#Cc1nc(NC(=O)NC(C(N)=O)c2ccc(-c3cccc4ncsc34)cc2)cs1` (stereo not shown) [Compound A209, 2-(4-(Benzo[d]thiazol-7-yl)phenyl)-2-(3-(2-ethynylthiazol-4-yl)ureido)acetamide], the EC50 is no more than 0.2 µM.
In the case of `C#Cc1nc(NC(=O)N[C@@H](C(N)=O)c2ccc(-c3cccc4ncsc34)cc2)cs1` [Compound A210, (R)-2-(4-(Benzo[d]thiazol-7-yl)phenyl)-2-(3-(2-ethynylthiazol-4-yl)ureido)-acetamide], the EC50 was no more than 0.2 µM.
Then `C#Cc1nc(NC(=O)N[C@H](C(N)=O)c2ccc(-c3cccc4ncsc34)cc2)cs1` [Compound A211, (S)-2-(4-(Benzo[d]thiazol-7-yl)phenyl)-2-(3-(2-ethynylthiazol-4-yl)ureido)-acetamide], with no more than 0.2 µM; and `C#Cc1nc(NC(=O)N[C@@H](C(N)=O)c2ccc(-c3cccc(C4(C#N)CC4)c3)cc2)cs1` [Compound A212, (R)-2-(3′-(1-Cyanocyclopropyl)-[1,1′-biphenyl]-4-yl)-2-(3-(2-ethynylthiazol-4-yl)ureido)acetamide], with no more than 0.2 µM; and `C#Cc1nc(NC(=O)N[C@@H](C(=O)NC)c2ccc(-c3cccc4nc[nH]c(=O)c34)cc2)cs1` [Compound A213, (R)-2-(3-(2-Ethynylthiazol-4-yl)ureido)-N-methyl-2-(4-(4-oxo-3,4-dihydro-quinazolin-5-yl)phenyl)acetamide], with no more than 0.2 µM.
With `C#Cc1nc(NC(=O)NC(C(=O)NC)c2ccc(-c3cccc4ncsc34)cc2)cs1` (stereo not shown) [Compound A214, 2-(4-(Benzo[d]thiazol-7-yl)phenyl)-2-(3-(2-ethynylthiazol-4-yl)ureido)-N-methylacetamide] the figure was no more than 0.2 µM; with `C#Cc1nc(NC(=O)N[C@@H](C(=O)NC)c2ccc(-c3cccc4ncsc34)cc2)cs1` [Compound A215, (R)-2-(4-(Benzo[d]thiazol-7-yl)phenyl)-2-(3-(2-ethynylthiazol-4-yl)ureido)-N-methylacetamide], no more than 0.2 µM.
With `C#Cc1nc(NC(=O)N[C@H](C(=O)NC)c2ccc(-c3cccc4ncsc34)cc2)cs1` [Compound A216, (S)-2-(4-(Benzo[d]thiazol-7-yl)phenyl)-2-(3-(2-ethynylthiazol-4-yl)ureido)-N-methylacetamide] the figure was no more than 0.2 µM; with `C#Cc1nc(NC(=O)N[C@@H](C(=O)NC)c2ccc(-c3cccc(C4(C#N)CC4)c3)cc2)cs1` [Compound A217, (R)-2-(3′-(1-Cyanocyclopropyl)-[1,1′-biphenyl]-4-yl)-2-(3-(2-ethynylthiazol-4-yl)ureido)-N-methylacetamide], no more than 0.2 µM; with `C#Cc1nc(NC(=O)N[C@@H](C(=O)NC)c2ccc(-c3cccc(C4(O)CC4)c3)cc2)cs1` [Compound A218, (R)-2-(3-(2-Ethynylthiazol-4-yl)ureido)-2-(3′-(1-hydroxycyclopropyl)-[1,1′-biphenyl]-4-yl)-N-methylacetamide], no more than 0.2 µM.
For `C#Cc1nc(NC(=O)N[C@@H](C(=O)NC)c2ccc(-c3cccc(C(=O)CC)c3)cc2)cs1` [Compound A219, (R)-2-(3-(2-Ethynylthiazol-4-yl)ureido)-N-methyl-2-(3′-propionyl-[1,1′-biphenyl]-4-yl)acetamide], the EC50 is no more than 0.2 µM.
With `C#Cc1nc(NC(=O)N[C@@H](C(=O)N(C)C)c2ccc(-c3cccc4ncsc34)cc2)cs1` [Compound A220, (R)-2-(4-(Benzo[d]thiazol-7-yl)phenyl)-2-(3-(2-ethynylthiazol-4-yl)ureido)-N,N-dimethylacetamide] the figure was no more than 0.2 µM; with `C#Cc1nc(NC(=O)N[C@@H](COC(N)=O)c2ccc(-c3cccc(C#N)c3)cc2)cs1` [Compound A221, (R)-2-(3′-Cyano-[1,1′-biphenyl]-4-yl)-2-(3-(2-ethynylthiazol-4-yl)ureido)ethyl carbamate], no more than 0.2 µM.
For `C#Cc1nc(NC(=O)NC(COC(N)=O)c2ccc(-c3cccc(C4(C#N)CC4)c3)cc2)cs1` (stereo not shown) [Compound A222], the EC50 was no more than 0.2 µM.
Then `C#Cc1nc(NC(=O)N[C@@H](COC(N)=O)c2ccc(-c3cccc4ncsc34)cc2)cs1` [Compound A223, (R)-2-(4-(Benzo[d]thiazol-7-yl)phenyl)-2-(3-(2-ethynylthiazol-4-yl)ureido)ethyl carbamate], with no more than 0.2 µM.
With `C#Cc1nc(NC(=O)N[C@@H](COC(=O)NC)c2ccc(-c3cccc4ncsc34)cc2)cs1` [Compound A224, (R)-2-(4-(Benzo[d]thiazol-7-yl)phenyl)-2-(3-(2-ethynylthiazol-4-yl)ureido)ethyl methylcarbamate] the figure was no more than 0.2 µM; with `C#Cc1nc(NC(=O)N[C@@H](COC(N)=O)c2ccc(-c3cccc4nnsc34)cc2)cs1` [Compound A225, (R)-2-(4-(Benzo[d][1,2,3]thiadiazol-7-yl)phenyl)-2-(3-(2-ethynylthiazol-4-yl)-ureido)ethyl carbamate], no more than 0.2 µM.
Then `C#Cc1nc(NC(=O)N[C@@H](COC(N)=O)c2ccc(-c3cccc4nsnc34)cc2)cs1` [Compound A226, (R)-2-(4-(Benzo[c][1,2,5]thiadiazol-4-yl)phenyl)-2-(3-(2-ethynylthiazol-4-yl)-ureido)ethyl carbamate], with no more than 0.2 µM; and `C#Cc1nc(NC(=O)N[C@@H](COC(N)=O)c2ccc(-c3cccc4cccnc34)cc2)cs1` [Compound A227, (R)-2-(3-(2-Ethynylthiazol-4-yl)ureido)-2-(4-(quinolin-8-yl)phenyl)ethyl carbamate], with no more than 0.2 µM; and `C#Cc1nc(NC(=O)N[C@@H](COC(N)=O)c2ccc(-c3cccc4cnccc34)cc2)cs1` [Compound A229, (R)-2-(3-(2-Ethynylthiazol-4-yl)ureido)-2-(4-(isoquinolin-5-yl)phenyl)ethyl carbamate], with no more than 0.2 µM.
As to `C#Cc1nc(NC(=O)N[C@@H](COC(N)=O)c2ccc(-c3cccc4ncccc34)cc2)cs1` [Compound A230, (R)-2-(3-(2-Ethynylthiazol-4-yl)ureido)-2-(4-(quinolin-5-yl)phenyl)ethyl carbamate], the EC50 is no more than 0.2 µM.
With `C#Cc1nc(NC(=O)N[C@@H](COC(N)=O)c2ccc(-c3cccc4c3cnn4C)cc2)cs1` [Compound A231, (R)-2-(3-(2-Ethynylthiazol-4-yl)ureido)-2-(4-(1-methyl-1H-indazol-4-yl)phenyl)-ethyl carbamate] the figure was no more than 0.2 µM.
Then `C#Cc1nc(NC(=O)N[C@@H](COC(N)=O)c2ccc(C3CCCc4c3cnn4C)cc2)cs1` (stereo partly drawn) [Compound A232, (2R)-2-(3-(2-Ethynylthiazol-4-yl)ureido)-2-(4-(1-methyl-4,5,6,7-tetrahydro-1H-indazol-4-yl)phenyl)ethyl carbamate], with no more than 0.2 µM; and `C#Cc1nc(NC(=O)N[C@@H](COC(N)=O)c2ccc(C3=CCCc4c3cnn4C)cc2)cs1` [Compound A233, (R)-2-(3-(2-Ethynylthiazol-4-yl)ureido)-2-(4-(1-methyl-6,7-dihydro-1H-indazol-4-yl)phenyl)ethyl carbamate], with no more than 0.2 µM.
With `C#Cc1nc(NC(=O)N[C@@H](COC(N)=O)c2ccc(-c3cccc(N4CCCC4)n3)cc2)cs1` [Compound A234, (R)-2-(3-(2-Ethynylthiazol-4-yl)ureido)-2-(4-(6-(pyrrolidin-1-yl)pyridin-2-yl)-phenyl)ethyl carbamate] the figure was no more than 0.2 µM; with `C#Cc1nc(NC(=O)N[C@@H](COC(N)=O)c2ccc(-c3ccnc(N4CCCC4)c3)cc2)cs1` [Compound A235, (R)-2-(3-(2-Ethynylthiazol-4-yl)ureido)-2-(4-(2-(pyrrolidin-1-yl)pyridin-4-yl)-phenyl)ethyl carbamate], no more than 0.2 µM.
Turning to `C#Cc1nc(NC(=O)N[C@@H](COC(N)=O)c2ccc(-c3cccc(C4(C#N)CC4)c3)cn2)cs1` [Compound A236, (R)-2-(5-(3-(1-Cyanocyclopropyl)phenyl)pyridin-2-yl)-2-(3-(2-ethynylthiazol-4-yl)ureido)ethyl carbamate], the EC50 is no more than 0.2 µM.
